Test system: NCI-H929 complex spheroids, viability % test/control
Experiment: Anticancer human tumor NCI-H929 cell line growth inhibition [RAS];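 further: compound exposure lasted seven days before viability was read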;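 on viability, T/C: 100% = DMSO vehicle control viability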
Conditions: for IC50: curve of first compound; for viability, T/C: stronger effect = lower value
Outline: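 Tumour cells grown as complex spheroids with HUVEC endothelial cells and mesenchymal stem cells, treated with RAS pathway inhibitor combinations. Each agent spans half-log steps from near clinical Cmax, or 10 microM where Cmax is unknown.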

Compound `CCc1c2c(nc3ccc(O)cc13)-c1cc3c(c(=O)n1C2)COC(=O)[C@]3(O)CC` + CCn1c(-c2cc(N3CCN(C)CC3)cnc2C(C)OC)c2c3cc(ccc31)-c1csc(n1)CC(NC(=O)C1CC1C)C(=O)N1CCCC(N1)C(=O)OCC(C)(C)C2 has an IC50 (second compound 0.000949 µM) of 1.88 nM, an IC50 (second compound 0.003 µM) of 2.18 nM and an IC50 (second compound 0.00949 µM) of 2 nM. For the same compound, the IC50 (second compound 0.03 µM) was less than 0.949 nM, the IC50 (second compound 0.0949 µM) was less than 0.949 nM and the IC50 (second compound 0.3 µM) was less than 0.949 nM. For the same compound, the viability, T/C (second compound 0.000949 µM, first compound 0.000949 µM) was 108%, the viability, T/C (second compound 0.000949 µM, first compound 0.003 µM) was 10.3% and the viability, T/C (second compound 0.000949 µM, first compound 0.00949 µM) was 1.4%. It also gave a viability, T/C (second compound 0.000949 µM, first compound 0.03 µM) of 2.14%, a viability, T/C (second compound 0.000949 µM, first compound 0.0949 µM) of 0.7% and a viability, T/C (second compound 0.000949 µM, first compound 0.3 µM) of 0.99%. For the same compound, the viability, T/C (second compound 0.003 µM, first compound 0.000949 µM) was 103%, the viability, T/C (second compound 0.003 µM, first compound 0.003 µM) was 29.6% and the viability, T/C (second compound 0.003 µM, first compound 0.00949 µM) was 1.69%. For the same compound, the viability, T/C (second compound 0.003 µM, first compound 0.03 µM) was 1.32%, the viability, T/C (second compound 0.003 µM, first compound 0.0949 µM) was 1.58% and the viability, T/C (second compound 0.003 µM, first compound 0.3 µM) was 1.28%. For the same compound, the viability, T/C (second compound 0.00949 µM, first compound 0.000949 µM) was 114%, the viability, T/C (second compound 0.00949 µM, first compound 0.003 µM) was 15.1% and the viability, T/C (second compound 0.00949 µM, first compound 0.00949 µM) was 1.72%. For the same compound, the viability, T/C (second compound 0.00949 µM, first compound 0.03 µM) was 1.61%, the viability, T/C (second compound 0.00949 µM, first compound 0.0949 µM) was 1.9% and the viability, T/C (second compound 0.00949 µM, first compound 0.3 µM) was 0.54%. The viability, T/C (second compound 0.03 µM, first compound 0.000949 µM) was 19.6%, the viability, T/C (second compound 0.03 µM, first compound 0.003 µM) was 2.7% and the viability, T/C (second compound 0.03 µM, first compound 0.00949 µM) was 1.2%. For the same compound, the viability, T/C (second compound 0.03 µM, first compound 0.03 µM) was 1.06%, the viability, T/C (second compound 0.03 µM, first compound 0.0949 µM) was 1.1% and the viability, T/C (second compound 0.03 µM, first compound 0.3 µM) was 0.6%. The viability, T/C (second compound 0.0949 µM, first compound 0.000949 µM) was 4.5%, the viability, T/C (second compound 0.0949 µM, first compound 0.003 µM) was 1.29% and the viability, T/C (second compound 0.0949 µM, first compound 0.00949 µM) was 1.45%. For the same compound, the viability, T/C (second compound 0.0949 µM, first compound 0.03 µM) was 0.94%, the viability, T/C (second compound 0.0949 µM, first compound 0.0949 µM) was 1.04% and the viability, T/C (second compound 0.0949 µM, first compound 0.3 µM) was 0.39%. The viability, T/C (second compound 0.3 µM, first compound 0.000949 µM) was 2.56%, the viability, T/C (second compound 0.3 µM, first compound 0.003 µM) was 1.55% and the viability, T/C (second compound 0.3 µM, first compound 0.00949 µM) was 0.57%. It also gave a viability, T/C (second compound 0.3 µM, first compound 0.03 µM) of 0.84%, a viability, T/C (second compound 0.3 µM, first compound 0.0949 µM) of 1.38% and a viability, T/C (second compound 0.3 µM, first compound 0.3 µM) of 0.4%.
